Legend:
[1] = test system: L-1210 leukemia; experiment: Anti-cancer study, L-1210 leukemia in BDF1 mice; type: in vivo, mouse; details: 20 mg/kg, seven days (Table 25)
Source text: Mice of the BDF1 strain are given an i.p. inoculation of 10^6 L-1210 leukemia cells on day 0. Twenty-four hours later, groups of 7 mice each are started on a […] treatment regimen of various doses of the compounds of this invention. The experiment is continued according to the guidelines provided under the National Cancer Institute protocol for screening new anti-cancer agents and T/C ratios (median or mean survival time of treated groups over median or mean survival time of controls) are calculated. A T/C value ≥1.25 (or 125%) is considered significant anticancer activity.
(§1) Mice of the BDF1 strain, inoculated with L-1210 leukemia cells, are treated for seven days with either 25, 50, 100, 200 or 400 mg/kg of Cpd. 1 or just buffer. The National Cancer Institute protocol for screening new anti-cancer agents is followed and T/C ratios are calculated.
as §1, with “either 100” for “either 25, 50, 100, 200 or 400”, “Cpd. 1, 20 mg/kg of 5-fluorouracil (5-FU), a known anti-cancer agent,” for “Cpd. 1”

[2] = test system: spleen lymphocytes of C57BL/6 mice; experiment: In vivo treatment, lymphocyte stimulation assay, C57BL/6 mice; details: 4 days
Method: (§2) The purpose of this assay is to challenge lymphocytes in microcultures with one or more polyclonal mitogens at concentrations that will induce mitogenesis within 72 hours of stimulation.
(§3) In the mouse model, spleens are removed from different strains of mice and the spleen cells are teased free and suspended in RPMI-1640 tissue culture medium at a concentration of usually 1×10^7 ml. These cells are dispensed at a concentration of 5.0×10^5 cells per microculture well in a 96 well flat bottom 96 well tissue culture plate. All testing of the compounds of this invention or mitogens are done in replicates of 10. The cells are then treated with PHA, Con-A, specific antigens, or buffer only. If in vitro testing is done, varying concentrations of the compounds of this invention or buffer only are added to the cells as well. After treatment with the mitogens and/or compounds of this invention, the cells are incubated for 72 hours. The response of these cells to mitogens and/or the compounds of this invention is assessed using ^14 C-thymidine labeling on the fourth day at a concentration of 0.01 μCi/well. The labeled cells are harvested using a lymphocyte harvestor and placed onto fibrous paper discs. A scintillation cocktail is added to vials contaning the discs and the results are obtained using a LKB-liquid scintillation counter (Model 1216/Rackbeta II). The data is expressed as a ratio of the cpm of the mitogen stimulated group to the control (non-mitogen) treated group=lymphocyte stimulation index (LSI).
(§4) The lymphocyte stimulation assay may be performed directly on spleen cells obtained from various strains of mice not treated with the compounds of this invention or on lymphocytes obtained from […]. […] Alternatively, the mice may be treated in vivo with the compounds of this invention by intraperitoneal multi-dose schedules, followed by sacrifice and harvesting spleen lymphocytes. These cells are then tested for their response to polyclonal mitogens or specific antigens used to immunize the mice. In this sytem however, no additional compound is added to the in vitro lymphocyte stimulation assay system.
Two strains of mice, C57BL/6 and BDF1 are treated for seven days with i.p. administration of either 25, 50, 100, 200, or 400 mg/kg of Cpd. 1 or just buffer. This is followed on the eighth day by a lymphocyte stimulation assay.
A comparison is made of the lymphocyte response to C57BL/6 mice treated 4 days with i.p. administration of either 50, 100, 200, 400 or 800 mg/kg of Cpd. 1, 50, 100, 200, 400 or 800 mg/kg of ascorbic acid (AA), or just buffer. This is followed on the fifth day by a lymphocyte stimulation assay.
Two strains of mice, C57BL/6 and BALB/c, are treated 4 days with i.p. administration of either 50, 100, 200, or 400 mg/kg of Cpd. 1, or just buffer. This is followed on the fifth day by a lymphocyte stimulation assay.
C57BL/6 mice were treated with four daily i.p. doses of either 50, 100, 200, or 400 mg/kg of Cpd. 1 or just buffer. On the fifth day a lymphocyte stimulation assay was performed.
Mice of the C57BL/6 strain were tested with i.p. administration of either 100, 200, 400 or 600 mg/kg of Cpd. 1 or just buffer. This was followed by removal of spleens and treatment of lymphocytes therein with mitogens PHA and Con-A.
The compound of Example 2, Cpd. 2, was tested in vivo by using C57BL/6 mice and treating them with […] or just buffer for four consecutive days by the i.p. route. On the fifth day a lymphocyte stimulation assay was performed.

[3] = test system: human lymphocytes; experiment: In vitro lymphocyte stimulation assay in humans; type: cell-based; details: 0.1-100 μg/well, PHA and Con-A
Method: as §2, §3
as §4, with “In this sytem however, no additional compound is added to the in vitro lymphocyte stimulation assay system.” left out

[4] = test system: spleen lymphocytes from C57BL/6 mice; experiment: In vitro lymphocyte stimulation assay, C57BL/6 spleen lymphocytes; type: cell-based, mouse
Method: as §2, §3, §4
An in vitro lymphocyte stimulation assay is performed directly on normal spleen lymphocytes removed from five normal C57BL/6 mice, using concentrations of Cpd. […] Following three days of incubation the assay is completed.
An in vitro lymphocyte stimulation assay was performed using spleen lymphocytes from normal C57BL/6 mice. The lymphocytes were treated with either 1, 5, 10, 50, or 100 μg/well of Cpd. 1 or buffer.
Cpd. 2 was tested using normal spleen lymphocytes from C57BL/6 mice. A lymphocyte stimulation assay was conducted using either 1, 5, 10, 50, or 100 μg/well […] or just buffer.
Spleen cells from C57BL/6 mice were treated, in vitro, with the crystallizing reagents, succinic acid and succinimide. Since these compounds are spontaneously released from the molecular complex in solution at a molar ratio of 2 moles of Cpds. 1, 2, or 3 per mole of the crystalline reagent, these reagents were treated in the lymphocyte stimulation assay at proper molar concentrations.
The compound of example 3, Cpd. 3, was used to treat C57BL/6 spleen lymphocytes in vitro. The lymphocytes were treated with either 1, 5, 10, 50, or 100 μg/well of Cpd. 3 or just buffer and then a lymphocyte stimulation assay was performed.

SMILES: O=c1[nH]cc(F)c(=O)[nH]1 [5-FU, 5-fluorouracil, reference compound]
- Median Survival Time [1]: 30

SMILES: O=C1O[C@H]([C@@H](O)CO)C(O)=C1O [AA, ascorbic acid, reference compound]
- proliferation with Con-A ([2]; 50 mg/kg i.p.): stimulation of proliferation
- effect with PHA ([2]; 50-800 mg/kg i.p.): No statistically significant measurable effect
- proliferative or anti-proliferative effect [3]: no significant proliferative or anti-proliferative effect

SMILES: CN1C(=O)CCC1=O.Cc1ccc(C2(O)C(=O)OC3C(O)COC32O)o1.Cc1ccc(C2(O)C(=O)OC3C(O)COC32O)o1 (stereo not shown) [Cpd. 3]
- Lymphocyte Stimulation Index, Con-A ([4]; 1 μg/well in vitro): 73.2
- Lymphocyte Stimulation Index, Control (no mitogen) ([4]; 1 μg/well in vitro): .60
- Lymphocyte Stimulation Index, PHA ([4]; 1 μg/well in vitro): 12.5
- Lymphocyte Stimulation Index, Con-A ([4]; 5 μg/well in vitro): 80.9
- Lymphocyte Stimulation Index, Control (no mitogen) ([4]; 5 μg/well in vitro): .64
- Lymphocyte Stimulation Index, PHA ([4]; 5 μg/well in vitro): 18.5
- response to PHA ([4]; 10 μg/well): significantly stimulated the response
- Lymphocyte Stimulation Index, Con-A ([4]; 10 μg/well in vitro): 89.6
- Lymphocyte Stimulation Index, Control (no mitogen) ([4]; 10 μg/well in vitro): .47
- Lymphocyte Stimulation Index, PHA ([4]; 10 μg/well in vitro): 24.0
- response to Con-A ([4]; 50 μg/well): slightly stimulated the response
- Lymphocyte Stimulation Index, Con-A ([4]; 50 μg/well in vitro): 97.2
- Lymphocyte Stimulation Index, Control (no mitogen) ([4]; 50 μg/well in vitro): .27
- Lymphocyte Stimulation Index, PHA ([4]; 50 μg/well in vitro): 4.08
- response to Con-A ([4]; 100 μg/well): suppressed the response
- Lymphocyte Stimulation Index, Con-A ([4]; 100 μg/well in vitro): 2.88
- Lymphocyte Stimulation Index, Control (no mitogen) ([4]; 100 μg/well in vitro): .25
- Lymphocyte Stimulation Index, PHA ([4]; 100 μg/well in vitro): 0.263
- response to PHA ([4]; 50 and 100 μg/well): suppressed the response

SMILES: O=C(O)CCC(=O)O [Succinic Acid, succinic acid, reference compound]
- Lymphocyte Stimulation Index, Con-A ([4]; 1.04 μg/well in vitro): 64.6
- Lymphocyte Stimulation Index, Control (no mitogen) ([4]; 1.04 μg/well in vitro): .94
- Lymphocyte Stimulation Index, PHA ([4]; 1.04 μg/well in vitro): 15.7
- Lymphocyte Stimulation Index, Con-A ([4]; 2.08 μg/well in vitro): 51.1
- Lymphocyte Stimulation Index, Control (no mitogen) ([4]; 2.08 μg/well in vitro): 1.0
- Lymphocyte Stimulation Index, PHA ([4]; 2.08 μg/well in vitro): 15.3
- Lymphocyte Stimulation Index, Con-A ([4]; 4.15 μg/well in vitro): 42.3
- Lymphocyte Stimulation Index, Control (no mitogen) ([4]; 4.15 μg/well in vitro): .91
- Lymphocyte Stimulation Index, PHA ([4]; 4.15 μg/well in vitro): 14.0
- Lymphocyte Stimulation Index, Con-A ([4]; 8.3 μg/well in vitro): 35.6
- Lymphocyte Stimulation Index, Control (no mitogen) ([4]; 8.3 μg/well in vitro): .91
- Lymphocyte Stimulation Index, PHA ([4]; 8.3 μg/well in vitro): 12.4
- Lymphocyte Stimulation Index, Con-A ([4]; 16.6 μg/well in vitro): 38.5
- Lymphocyte Stimulation Index, Control (no mitogen) ([4]; 16.6 μg/well in vitro): 1.1
- Lymphocyte Stimulation Index, PHA ([4]; 16.6 μg/well in vitro): 11.5
- PHA and Con-A mitogenesis ([4]; with increased dosage, 1.04-16.6 μg/well): decrease in PHA and Con-A mitogenesis

SMILES: O=C1CCC(=O)N1 [Succinimide, succinimide, reference compound]
- Lymphocyte Stimulation Index, Con-A ([4]; 13.92 μg/well in vitro): 92.9
- Lymphocyte Stimulation Index, Control (no mitogen) ([4]; 13.92 μg/well in vitro): 1.4
- Lymphocyte Stimulation Index, PHA ([4]; 13.92 μg/well in vitro): 17.1
- effect on response to either mitogen ([4]; 0.87-13.92 μg/well): no significant suppressive or enhancing effect
